{
  "source": "paper PMC6364417",
  "about": "“Kinase inhibitor library screening identifies synergistic drug combinations effective in sensitive and resistant melanoma cells” (Journal of Experimental & Clinical Cancer Research : CR, 2019)",
  "assay_in_all_cases": "Kinase inhibitor library screening, PrestoBlue cell viability, 1 or 10 μM, 72 h",
  "key": {"[1]": {"test_system": "501Mel cells (parental)", "conditions": "501Mel Parental, in %; for Cell viability in kinase inhibitor library screening, 501Mel Parental, 1μΜ / Cell viability in kinase inhibitor library screening, 501Mel Parental, 10μΜ: 72 h", "method_in_brief": "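Each compound was applied to parental melanoma cells and to derivatives made resistant to Vemurafenib or Dabrafenib. After treatment, viability was read with PrestoBlue on a plate reader and expressed as % of untreated cells, with each line run at least in duplicate.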"}, "[2]": {"test_system": "501Mel-GP cells (Dabrafenib-resistant)", "conditions": "501Mel GP, in %; for Cell viability in kinase inhibitor library screening, 501Mel GP, 1μΜ / Cell viability in kinase inhibitor library screening, 501Mel GP, 10μΜ: 72 h"}, "[3]": {"test_system": "501Mel-XP cells (Vemurafenib-resistant)", "conditions": "501Mel XP, in %; for Cell viability in kinase inhibitor library screening, 501Mel XP, 1μΜ / Cell viability in kinase inhibitor library screening, 501Mel XP, 10μΜ: 72 h"}, "[4]": {"test_system": "A375 cells (parental)", "conditions": "A375 Parental; for Cell viability in kinase inhibitor library screening, A375 Parental, 10μΜ / Cell viability in kinase inhibitor library screening, A375 Parental, 1μΜ: 72 h"}, "[5]": {"test_system": "A375-GP cells (Dabrafenib-resistant)", "conditions": "A375 GP; for Cell viability in kinase inhibitor library screening, A375 GP, 1μΜ / Cell viability in kinase inhibitor library screening, A375 GP, 10μΜ: 72 h; for cell viability (kinase inhibitor library screening): in %"}, "[6]": {"test_system": "A375-XP cells (Vemurafenib-resistant)", "conditions": "A375 XP; for Cell viability in kinase inhibitor library screening, A375 XP, 1μΜ / Cell viability in kinase inhibitor library screening, A375 XP, 10μΜ: 72 h"}, "[7]": {"test_system": "IGR37 cells (parental)", "conditions": "IGR37 Parental, in %; for Cell viability in kinase inhibitor library screening, IGR37 Parental, 1μΜ / Cell viability in kinase inhibitor library screening, IGR37 Parental, 10μΜ: 72 h"}, "[8]": {"test_system": "IGR37-GP cells (Dabrafenib-resistant)", "conditions": "IGR37 GP; for Cell viability in kinase inhibitor library screening, IGR37 GP, 10μΜ / Cell viability in kinase inhibitor library screening, IGR37 GP, 1μΜ: 72 h; for Cell viability in kinase inhibitor library screening, IGR37 GP, 1μΜ / cell viability (kinase inhibitor library screening): in %"}, "[9]": {"test_system": "IGR37-XP cells (Vemurafenib-resistant)", "conditions": "IGR37 XP; for Cell viability in kinase inhibitor library screening, IGR37 XP, 10μΜ / Cell viability in kinase inhibitor library screening, IGR37 XP, 1μΜ: 72 h"}},
  "data": [
    {"smiles": "CCn1nnc2c(N3CCOCC3)nc(-c3ccc(NC(=O)Nc4ccc(C(=O)N5CCN(C)CC5)cc4)cc3)nc21", "note": "[PKI-402]", "values": [
      {"measurement": "Cell viability in kinase inhibitor library screening, 501Mel Parental, 1μΜ", "setting": "[1]; 1μΜ", "value": 15.4},
      {"measurement": "Cell viability in kinase inhibitor library screening, 501Mel Parental, 10μΜ", "setting": "[1]; 10μΜ", "value": 0.476},
      {"measurement": "Cell viability in kinase inhibitor library screening, 501Mel GP, 1μΜ", "setting": "[2]; 1μΜ", "value": 21.4},
      {"measurement": "Cell viability in kinase inhibitor library screening, 501Mel GP, 10μΜ", "setting": "[2]; 10μΜ", "value": 0.548},
      {"measurement": "Cell viability in kinase inhibitor library screening, 501Mel XP, 1μΜ", "setting": "[3]; 1μΜ", "value": 15.3},
      {"measurement": "Cell viability in kinase inhibitor library screening, 501Mel XP, 10μΜ", "setting": "[3]; 10μΜ", "value": -0.1},
      {"measurement": "Cell viability in kinase inhibitor library screening, A375 Parental, 10μΜ", "setting": "[4]; 10μΜ", "value": 12.7},
      {"measurement": "Cell viability in kinase inhibitor library screening, A375 Parental, 1μΜ", "setting": "[4]", "value": 21.3},
      {"measurement": "Cell viability in kinase inhibitor library screening, A375 GP, 1μΜ", "setting": "[5]; 1μΜ", "value": 23.7},
      {"measurement": "Cell viability in kinase inhibitor library screening, A375 GP, 10μΜ", "setting": "[5]; 10μΜ", "value": 9.7},
      {"measurement": "Cell viability in kinase inhibitor library screening, A375 XP, 1μΜ", "setting": "[6]", "value": 20.0},
      {"measurement": "Cell viability in kinase inhibitor library screening, A375 XP, 10μΜ", "setting": "[6]; 10μΜ", "value": 8.5},
      {"measurement": "Cell viability in kinase inhibitor library screening, IGR37 Parental, 1μΜ", "setting": "[7]; 1μΜ", "value": 35.8},
      {"measurement": "Cell viability in kinase inhibitor library screening, IGR37 Parental, 10μΜ", "setting": "[7]; 10μΜ", "value": 2.7},
      {"measurement": "Cell viability in kinase inhibitor library screening, IGR37 GP, 10μΜ", "setting": "[8]; 10μΜ", "value": 3.4, "unit": "%"},
      {"measurement": "Cell viability in kinase inhibitor library screening, IGR37 GP, 1μΜ", "setting": "[8]; 1μΜ", "value": 66.1},
      {"measurement": "Cell viability in kinase inhibitor library screening, IGR37 XP, 10μΜ", "setting": "[9]; 10μΜ", "value": 1.9, "unit": "%"},
      {"measurement": "Cell viability in kinase inhibitor library screening, IGR37 XP, 1μΜ", "setting": "[9]; in %", "value": 25.5}
    ]},
    {"smiles": "CCCS(=O)(=O)Nc1ccc(F)c(C(=O)c2c[nH]c3ncc(Cl)cc23)c1F", "note": "[PLX-4720]", "values": [
      {"measurement": "Cell viability in kinase inhibitor library screening, 501Mel Parental, 1μΜ", "setting": "[1]; 1μΜ", "value": 63.2},
      {"measurement": "Cell viability in kinase inhibitor library screening, 501Mel Parental, 10μΜ", "setting": "[1]; 10μΜ", "value": 55.8},
      {"measurement": "Cell viability in kinase inhibitor library screening, 501Mel GP, 1μΜ", "setting": "[2]; 1μΜ", "value": 104.7},
      {"measurement": "Cell viability in kinase inhibitor library screening, 501Mel GP, 10μΜ", "setting": "[2]; 10μΜ", "value": 77.9},
      {"measurement": "Cell viability in kinase inhibitor library screening, 501Mel XP, 1μΜ", "setting": "[3]; 1μΜ", "value": 96.2},
      {"measurement": "Cell viability in kinase inhibitor library screening, 501Mel XP, 10μΜ", "setting": "[3]; 10μΜ", "value": 64.4},
      {"measurement": "Cell viability in kinase inhibitor library screening, A375 Parental, 10μΜ", "setting": "[4]; 10μΜ", "value": 14.6},
      {"measurement": "Cell viability in kinase inhibitor library screening, A375 Parental, 1μΜ", "setting": "[4]", "value": 32.1},
      {"measurement": "Cell viability in kinase inhibitor library screening, A375 GP, 1μΜ", "setting": "[5]; 1μΜ", "value": 83.9},
      {"measurement": "Cell viability in kinase inhibitor library screening, A375 GP, 10μΜ", "setting": "[5]; 10μΜ", "value": 78.1},
      {"measurement": "Cell viability in kinase inhibitor library screening, A375 XP, 1μΜ", "setting": "[6]", "value": 102.9},
      {"measurement": "Cell viability in kinase inhibitor library screening, A375 XP, 10μΜ", "setting": "[6]; 10μΜ", "value": 79.1},
      {"measurement": "Cell viability in kinase inhibitor library screening, IGR37 Parental, 1μΜ", "setting": "[7]; 1μΜ", "value": 44.1},
      {"measurement": "Cell viability in kinase inhibitor library screening, IGR37 Parental, 10μΜ", "setting": "[7]; 10μΜ", "value": 31.4},
      {"measurement": "Cell viability in kinase inhibitor library screening, IGR37 GP, 10μΜ", "setting": "[8]; 10μΜ", "value": 79, "unit": "%"},
      {"measurement": "Cell viability in kinase inhibitor library screening, IGR37 GP, 1μΜ", "setting": "[8]; 1μΜ", "value": 97.0},
      {"measurement": "Cell viability in kinase inhibitor library screening, IGR37 XP, 10μΜ", "setting": "[9]; 10μΜ", "value": 52.5, "unit": "%"},
      {"measurement": "Cell viability in kinase inhibitor library screening, IGR37 XP, 1μΜ", "setting": "[9]; in %", "value": 99.4}
    ]},
    {"smiles": "COc1ccc(COc2cc3oc(=O)c4cc(C(C)O)ccc4c3cc2OC)cc1", "note": "(centres unmarked) [Palomid 529]", "values": [
      {"measurement": "Cell viability in kinase inhibitor library screening, 501Mel Parental, 1μΜ", "setting": "[1]; 1μΜ", "value": 87.4},
      {"measurement": "Cell viability in kinase inhibitor library screening, 501Mel Parental, 10μΜ", "setting": "[1]; 10μΜ", "value": 80.1},
      {"measurement": "Cell viability in kinase inhibitor library screening, 501Mel GP, 1μΜ", "setting": "[2]; 1μΜ", "value": 90.2},
      {"measurement": "Cell viability in kinase inhibitor library screening, 501Mel GP, 10μΜ", "setting": "[2]; 10μΜ", "value": 80.5},
      {"measurement": "Cell viability in kinase inhibitor library screening, 501Mel XP, 1μΜ", "setting": "[3]; 1μΜ", "value": 95.5},
      {"measurement": "Cell viability in kinase inhibitor library screening, 501Mel XP, 10μΜ", "setting": "[3]; 10μΜ", "value": 30.6},
      {"measurement": "Cell viability in kinase inhibitor library screening, A375 Parental, 10μΜ", "setting": "[4]; 10μΜ", "value": 83.6},
      {"measurement": "Cell viability in kinase inhibitor library screening, A375 GP, 1μΜ", "setting": "[5]; 1μΜ", "value": 94.7},
      {"measurement": "Cell viability in kinase inhibitor library screening, A375 GP, 10μΜ", "setting": "[5]; 10μΜ", "value": 88.6},
      {"measurement": "Cell viability in kinase inhibitor library screening, A375 XP, 1μΜ", "setting": "[6]", "value": 100.3},
      {"measurement": "Cell viability in kinase inhibitor library screening, A375 XP, 10μΜ", "setting": "[6]; 10μΜ", "value": 90.5},
      {"measurement": "Cell viability in kinase inhibitor library screening, IGR37 Parental, 1μΜ", "setting": "[7]; 1μΜ", "value": 102.9},
      {"measurement": "Cell viability in kinase inhibitor library screening, IGR37 Parental, 10μΜ", "setting": "[7]; 10μΜ", "value": 103.1},
      {"measurement": "Cell viability in kinase inhibitor library screening, IGR37 GP, 10μΜ", "setting": "[8]; 10μΜ", "value": 75.1, "unit": "%"},
      {"measurement": "Cell viability in kinase inhibitor library screening, IGR37 GP, 1μΜ", "setting": "[8]; 1μΜ", "value": 87.7},
      {"measurement": "Cell viability in kinase inhibitor library screening, IGR37 XP, 10μΜ", "setting": "[9]; 10μΜ", "value": 46.5, "unit": "%"},
      {"measurement": "Cell viability in kinase inhibitor library screening, IGR37 XP, 1μΜ", "setting": "[9]; in %", "value": 98.2}
    ]},
    {"smiles": "Cc1ccc(Nc2nccc(N(C)c3ccc4c(C)n(C)nc4c3)n2)cc1S(N)(=O)=O.Cl", "note": "[Pazopanib HCl]", "values": [
      {"measurement": "cell viability (kinase inhibitor library screening)", "setting": "[1]; 1μΜ", "value": 99.1},
      {"measurement": "cell viability (kinase inhibitor library screening)", "setting": "[1]; 10μΜ", "value": 86.1},
      {"measurement": "cell viability (kinase inhibitor library screening)", "setting": "[2]; 1μΜ", "value": 95.6},
      {"measurement": "cell viability (kinase inhibitor library screening)", "setting": "[2]; 10μΜ", "value": 65.3},
      {"measurement": "cell viability (kinase inhibitor library screening)", "setting": "[3]; 1μΜ", "value": 88.8},
      {"measurement": "cell viability (kinase inhibitor library screening)", "setting": "[3]; 10μΜ", "value": 48.8},
      {"measurement": "cell viability (kinase inhibitor library screening)", "setting": "[4]; 10μΜ, in %", "value": 71.9},
      {"measurement": "cell viability (kinase inhibitor library screening)", "setting": "[5]; 1μΜ", "value": 98.9},
      {"measurement": "cell viability (kinase inhibitor library screening)", "setting": "[5]; 10μΜ", "value": 71.0},
      {"measurement": "cell viability (kinase inhibitor library screening)", "setting": "[6]; 10μΜ, in %", "value": 75.2},
      {"measurement": "cell viability (kinase inhibitor library screening)", "setting": "[7]; 1μΜ", "value": 96.1},
      {"measurement": "cell viability (kinase inhibitor library screening)", "setting": "[7]; 10μΜ", "value": 84.7},
      {"measurement": "cell viability (kinase inhibitor library screening)", "setting": "[8]; 1μΜ", "value": 83.2},
      {"measurement": "cell viability (kinase inhibitor library screening)", "setting": "[8]; 10μΜ", "value": 61.1},
      {"measurement": "cell viability (kinase inhibitor library screening)", "setting": "[9]; 10μΜ, in %", "value": 65.8}
    ]}
  ]
}
